Source: BindingDB's records for PubMed 40188441 (Shanghai Jiao Tong University)

Test: Inhibition of human STING in human THP-1 Dual cells assessed as secreted luciferase reporter of interferon stimulated gene (ISG) measured after 24 hrs incubation by QUANTI-Luc detection assay

| SMILES | IC50 [nM] |
| --- | --- |
| O=C(Nc1c[nH]c2ccccc12)N1CCc2[nH]c3c(Cl)c(Cl)ccc3c2C1 | 2120 |
| O=C(Nc1c[nH]c2ccccc12)N1CCc2[nH]c3c(Cl)c(Cl)cc(Br)c3c2C1 | 2050 |
| Cn1ccc(-c2cc(Cl)c(Cl)c3[nH]c4c(c23)CN(C(=O)Nc2c[nH]c3ccccc23)CC4)n1 | > 10000 |
| Cc1ccc2c(NC(=O)N3CCc4[nH]c5c(Cl)c(Cl)ccc5c4C3)c[nH]c2c1 | > 10000 |
| COc1ccc2c(NC(=O)N3CCc4[nH]c5c(Cl)c(Cl)ccc5c4C3)c[nH]c2c1 | > 10000 |
| O=C(Nc1c[nH]c2cc(F)ccc12)N1CCc2[nH]c3c(Cl)c(Cl)ccc3c2C1 | 3180 |
| O=C(Nc1c[nH]c2cc(Cl)ccc12)N1CCc2[nH]c3c(Cl)c(Cl)ccc3c2C1 | 3310 |
| COc1ccc2[nH]cc(NC(=O)N3CCc4[nH]c5c(Cl)c(Cl)ccc5c4C3)c2c1 | 2380 |
| O=C(Nc1c[nH]c2ccc(F)cc12)N1CCc2[nH]c3c(Cl)c(Cl)ccc3c2C1 | 2400 |
| O=C(Nc1c[nH]c2ccc(Br)cc12)N1CCc2[nH]c3c(Cl)c(Cl)ccc3c2C1 | 791 |
| O=C(Nc1c[nH]c2ccc(F)cc12)N1CCc2oc3c(Cl)c(Cl)ccc3c2C1 | 382 |
| O=C(Nc1c[nH]c2ccc(Br)cc12)N1CCc2oc3c(Cl)c(Cl)ccc3c2C1 | 353 |
| O=C(Nc1ccc2c(c1)OC(F)(F)O2)Nc1c[nH]c2ccccc12 | 18 |
| O=C(Nc1cccc2c1OC(F)(F)O2)Nc1c[nH]c2ccccc12 | 1830 |
| O=C(Nc1ccc2c(c1)OC(F)(F)C(F)(F)O2)Nc1c[nH]c2ccc(F)cc12 | 110 |
| O=C(Nc1ccc2c(c1)OCO2)Nc1c[nH]c2ccc(F)cc12 | 3470 |
| O=C(Nc1ccc2c(c1)OCCO2)Nc1c[nH]c2ccc(F)cc12 | 1350 |
| O=C(Nc1ccc2c(c1)COB2O)Nc1c[nH]c2ccc(F)cc12 | > 10000 |
| O=C(Nc1ccc2c(c1)CCN2)Nc1c[nH]c2ccc(F)cc12 | > 10000 |
| O=C(Nc1ccc2c(c1)NCC2)Nc1c[nH]c2ccc(F)cc12 | 1220 |
| CN1CCc2cc(NC(=O)Nc3c[nH]c4ccc(F)cc34)ccc21 | 1180 |

| SMILES | IC50 [nM] |
| --- | --- |
| O=C(Nc1ccc2c(c1)OC(F)(F)O2)Nc1c[nH]c2ccc(Br)cc12 | 71 |
| O=C(Nc1ccc2c(c1)OC(F)(F)O2)Nc1c[nH]c2ccc(Cl)cc12 | 66 |
| C=CC(=O)Nc1ccc2[nH]cc(NC(=O)Nc3ccc4c(c3)OC(F)(F)O4)c2c1 | > 10000 |
| CCOP(=O)(Cc1ccc2[nH]cc(NC(=O)Nc3ccc4c(c3)OC(F)(F)O4)c2c1)OCC | > 10000 |
| C#Cc1ccc2[nH]cc(NC(=O)Nc3ccc4c(c3)OC(F)(F)O4)c2c1 | 119 |
| O=C(Nc1ccc2c(c1)OC(F)(F)O2)Nc1c[nH]c2ccc(C#CC(F)(F)F)cc12 | > 10000 |
| O=C(Nc1ccc2c(c1)OC(F)(F)O2)Nc1c[nH]c2ccc(C#CC3CC3)cc12 | 258 |
| CC(=O)OCC#Cc1ccc2[nH]cc(NC(=O)Nc3ccc4c(c3)OC(F)(F)O4)c2c1 | 489 |
| O=C(Nc1ccc2c(c1)OC(F)(F)O2)Nc1c[nH]c2ccc(C#CCO)cc12 | 2190 |
| Cn1cc(C#Cc2ccc3[nH]cc(NC(=O)Nc4ccc5c(c4)OC(F)(F)O5)c3c2)cn1 | 264 |
| COC(=O)/C=C/c1ccc2[nH]cc(NC(=O)Nc3ccc4c(c3)OC(F)(F)O4)c2c1 | 3650 |
| N#C/C=C/c1ccc2[nH]cc(NC(=O)Nc3ccc4c(c3)OC(F)(F)O4)c2c1 | > 10000 |
| N#CC/C=C/c1ccc2[nH]cc(NC(=O)Nc3ccc4c(c3)OC(F)(F)O4)c2c1 | 116 |
| COCCOCCn1cc(-c2ccc3[nH]cc(NC(=O)Nc4ccc5c(c4)OC(F)(F)O5)c3c2)nn1 | 2490 |
| O=C(Nc1ccc2c(c1)OC(F)(F)O2)Nc1c[nH]c2ccc(-c3cn(CCN4CCOCC4)nn3)cc12 | > 10000 |
| O=C(Nc1ccc2c(c1)OC(F)(F)O2)Nc1c[nH]c2ccc(-c3cn(CCO)nn3)cc12 | > 10000 |
| Fc1ccc2[nH]cc(Nc3nc4cc5c(cc4[nH]3)OC(F)(F)O5)c2c1 | 192 |
| Fc1ccc2[nH]cc(Nc3nc4cc(C(F)(C(F)(F)F)C(F)(F)F)ccc4[nH]3)c2c1 | 269 |
| Fc1ccc2[nH]cc(Nc3nc4cc(C5CCCC5)ccc4[nH]3)c2c1 | 43 |
| Fc1cc2[nH]cc(Nc3nc4cc(C5CCCC5)ccc4[nH]3)c2cc1F | 216 |
| Fc1cnc2[nH]cc(Nc3nc4cc(C5CCCC5)ccc4[nH]3)c2c1 | 44 |
